Source: patent US11274118B2 (priority 2012, dated 2022)
Converted amounts (≈) assume the structure as drawn. Read-outs that look alike come from different tables or passages of the source.

What was measured:
[1] = tested on: cerebral edema in rats following bilateral cortical contusion; conditions: rat
[2] = physchem; conditions: kinetic from dmso stock
[3] = Rat pharmacokinetic profile, i.m. injection; type: in vivo; conditions: rats
Description: PK Animal Methods. Rat PK studies were done in jugular cannulated male SD rats, weighing 250-300 grams. 7 was dosed i.v. and i.m.; 13 was dosed i.m. only. For i.v. dosing 7 was formulated in PEG 300/glycofurol/Tween 80/water (26/5/2/67) and dosed @ 10 mg/kg and 3.3 ml/kg. For i.m. dosing, both compounds were formulated in propylene glycol/Tween 80/50 mM Citrate, pH 5.0 (40/4/56) and dosed @10 mg/kg and 1 ml/kg into the upper leg. Blood samples (0.3 ml) were taken at 0.25, 0.50, 1, 2, 4, 6 & 8 hours in the i.m. experiments; the same time points were used for the i.v. experiment, with the addition of an early 0.08 hr (5 min) time point. Samples were collected in either Li heparin or K EDTA microtainers, centrifuged at 2000×g for 10 minutes. Plasma was then transferred to 2 ml Eppendorf tubes, frozen on dry ice and transferred to a −80° C. freezer for storage until analysis for prodrug, oxime and progesterone by LC/MS/MS, followed by pharmacokinetic analysis by WinNonlin.

[4] = In vitro metabolism in human liver microsomes; conditions: human liver microsomes at 37° C., 0-60 min
[5] = tested on: Primary cortical cells; experiment: Reduction of neuronal cell death after a glutamate challenge (MTT / LDH release); type: cell-based; conditions: for inhibition at 5 µM: 24 h, read-out: reduction in cell death at a 5 μM dose; for dose at maximum efficacy: primary cortical cells; for Emax: read-out: maximum efficacy, reduction in cell death
[6] = human plasma
[7] = rat plasma
[8] = rat, in vivo, iv
[9] = physchem; conditions: pH 7
[10] = Exposure to rat S9 liver fractions; type: in vitro ADME; conditions: hydrochloride
[11] = physchem; conditions: aqueous with cosolvent or surfactant or cyclodextrin
[12] = tested on: moderate to severe TBI patients; conditions: 3 days of intravenous treatment, 100 moderate to severe TBI patients; cited from earlier work
[13] = buffer
[14] = male, Sprague-Dawley (SD), 10 mg/kg

| Compound | reduction of brain edema after 24 hours compared to untreated rats ([1]; in vivo) | solubility at 90 min ([2]; pH 4, aqueous buffer) | solubility at 90 min ([2]; pH 7, aqueous buffer) | inhibition at 5 µM [5] | dose at maximum efficacy ([5]; glutamate challenge) | Emax [5] | half-life ([9]; buffer) | further results |
| --- | --- | --- | --- | --- | --- | --- | --- | --- |
| CC(=O)[C@H]1CC[C@H]2[C@@H]3CCC4=C/C(=N/OC(=O)[C@@H](N)C(C)C)CC[C@]4(C)[C@H]3CC[C@]12C.Cl [Compound 1, (S)-1-((E)-((8S,9S,10R,13S,14S,17S)-17-Acetyl-10,13-dimethyl-7,8,9,11-tetrahydro-1H-cyclopenta[a]phenanthren-3 (2H,6H, 1 OH, 12H, 13H, 14H, 15H, 16H, 17H)-ylidene)aminooxy)-2-amino-3-methylbutan-1-one Hydrochloride] | 59% | 322 µM | 172 µM | 27% | 5 µM | 27% |  | activity in in vitro and in vivo models of brain injury TBI [1]: activity similar to that of progesterone; plasma levels of free oxime, parent prodrug and progesterone [3]: generated measurable concentrations of the corresponding oximes without evidence of either the parent prodrug or progesterone; metabolism in human liver microsomes [4]: hydrolyzed rapidly to the free oxime 2 as well as lesser quantities of progesterone; conversion to progesterone [6]: neither of the test compounds were converted to progesterone; conversion to progesterone [7]: neither of the test compounds were converted to progesterone; plasma levels of parent, free oxime and progesterone [8, 14]: hydrolyzed rapidly to provide large concentrations of the free oxime 2 and smaller concentrations of progesterone |
| C/C(=N\OCCN1CCOCC1)[C@H]1CC[C@H]2[C@@H]3CCC4=CC(=O)CC[C@]4(C)[C@H]3CC[C@]12C [Compound 5, (8S,9S,10R,13S,14S,17S)-10,13-Dimethyl-17-((E)-1-(2-morpholinoethoxyimino)ethyl)-6,7,8,9,10,11,12,13,14,15,16,17-dodecahydro-1H-cyclopenta[a]phenanthren-3 (2H)-one] |  | > 450 µM | 108 µM (≈ 47.8 µg/mL) | 26% | 5 µM | 26% | > 240 h |  |
| C/C(=N\OC(=O)[C@@H](N)C(C)C)[C@H]1CC[C@H]2[C@@H]3CCC4=CC(=O)CC[C@]4(C)[C@H]3CC[C@]12C.Cl [Compound 7, (8S,9S,10R,13 S,14S,17S)-17-((E)-1-((S)-2-Amino-3-methylbutanoyloxyimino)ethyl)-10,13-dimethyl-6,7,8,9,10,11,12,13,14,15,16,17-dodecahydro-1H-cyclopenta[a]phenanthren-3 (2H)-one hydrochloride] | 56% | > 645 µM | 146 µM | 24% | 5 µM | 24% | 11.4 h | metabolism in rat S9 liver fractions [10]: relatively stable and no measurable quantities of progesterone were generated; Cmax and AUC, compared with 1 [3]: significantly higher Cmax and AUC than the relative C-3 oxime 1; plasma levels of free oxime, parent prodrug and progesterone [3]: generated measurable concentrations of the corresponding oximes without evidence of either the parent prodrug or progesterone; solubility [11]: ≥ 60000 µM; conversion to progesterone [6]: neither of the test compounds were converted to progesterone; conversion to progesterone [7]: neither of the test compounds were converted to progesterone; levels of progesterone produced, compared with compound 1 [8, 14]: superior to those generated by compound 1; plasma levels of parent, free oxime and progesterone [8, 14]: low levels of the parent compound 7 was observed, high levels of the relative free oxime 3, and therapeutic levels of progesterone |
| CC(=O)[C@H]1CC[C@H]2[C@@H]3CCC4=C/C(=N/O)CC[C@]4(C)[C@H]3CC[C@]12C [Compound 2, 1-((8S,9S,10R,13S,14S,17S,E)-3-(Hydroxyimino)-10,13-dimethyl-2,3,6,7,8,9,10,11,12,13,14,15,16,17-tetradecahydro-1H-cyclopenta[a]phenanthren-17-yl)ethanone] |  | < 45 µM | < 45 µM | 21% | 5 µM | 21% | > 240 h | reduction of brain edema ([1]; in vivo, iv, 4 mg/kg): 60%; concentrations of circulating drug ([8]; 4 mg/kg): micromolar concentrations |
| C/C(=N\O)[C@H]1CC[C@H]2[C@@H]3CCC4=CC(=O)CC[C@]4(C)[C@H]3CC[C@]12C [Compound 3, (8S,9S,10R,13S,14S,17S)-17-((E)-1-(Hydroxyimino)ethyl)-10,13-dimethyl-6,7,8,9,10,11,12,13,14,15,16,17-dodecahydro-1H-cyclopenta[a]phenanthren-3(2H)-one] |  |  |  |  |  |  |  | aqueous solubility (neutral pH): highly insoluble |
| CC(=O)[C@H]1CC[C@H]2[C@@H]3CCC4=CC(=O)CC[C@]4(C)[C@H]3CC[C@]12C [PROG, Progesterone, reference compound] | 62% | < 25 µM | < 25 µM | 4% | 20 µM | 42% |  | Aqueous solubility at pH 7 (90 min, pH 7): <25 μM; efficacy at the 5 μM dose ([5]; 5 μM, glutamate challenge): nearly ineffective; half-life ([9]; phosphate buffer): > 240 h; reduction of mortality [12]: over 60% |
| C/C(=N\OC(=O)CN(C)C)[C@H]1CC[C@H]2[C@@H]3CCC4=CC(=O)CC[C@]4(C)[C@H]3CC[C@]12C [Compound 10, (8S,9S,10R,13S,14S,17S)-17-((E)-1-(2-(Dimethylamino)acetoxyimino)ethyl)-10,13-dimethyl-6,7,8,9,10,11,12,13,14,15,16,17-dodecahydro-1H-cyclopenta[a]phenanthren-3(2H)-one] |  | 449 µM (≈ 186 µg/mL) | 171 µM (≈ 70.9 µg/mL) |  |  |  |  | Aqueous Stability t1/2 at pH = 7.0 [13]: 6.2 h |
| CO/N=C(\C)[C@H]1CC[C@H]2[C@@H]3CCC4=CC(=O)CC[C@]4(C)[C@H]3CC[C@]12C [Compound 4, (8S,9S,10R,13S,14S,17S)-17-((E)-1-(Methoxyimino)ethyl)-10,13-dimethyl-6,7,8,9,10,11,12,13,14,15,16,17-dodecahydro-1H-cyclopenta[a]phenanthren-3(2H)-one] |  | < 25 µM | < 25 µM |  |  |  | > 240 h |  |
| C/C(=N\OC(=O)[C@@H]1CCC[N+]1(C)C)[C@H]1CC[C@H]2[C@@H]3CCC4=CC(=O)CC[C@]4(C)[C@H]3CC[C@]12C.[I-] [Compound 9, (8S,9S,10R,13S,14S,17S)-10,13-Dimethyl-17-((E)-1-((S)-1,1-Dimethylpyrrolidine-2-carbonyloxyimino)ethyl)-6,7,8,9,10,11,12,13,14,15,16,17-dodecahydro-1H-cyclopenta[a]phenanthren-3(2H)-one iodide] |  | 345 µM | 51 µM |  |  |  | 0.833 h |  |
